Some test systems named below: CCRF-CEM leukemia; IGROV1 ovarian; ACHN renal; K-562 leukemia; HCT-15 colon; OVCAR-4 ovarian; SNB-19 CNS; KM12 colon; SK-MEL-5 melanoma; CAKI-1 renal.
What all share (assay): NCI-60 cell line screen, 48 h

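Interpolation was linear, between the two tested concentrations surrounding the appropriate level; five concentrations were tested over 48 hours in 96-well plates. The concentration for 50% growth inhibition is given as GI50. TGI is the concentration that stops growth completely.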

For the compound `COc1cc2nc(-c3ccc(Cl)cc3)cc(OCCCN3CCC(O)CC3)c2cc1OC`, the GI50 in the assay on CCRF-CEM leukemia is 2.65 µM; in the assay with IGROV1 ovarian it was 0.923 µM; in the assay with ACHN renal, 2.43 µM; with K-562 leukemia, 1.63 µM; in the assay on HCT-15 colon, 0.763 µM; in the assay on OVCAR-4 ovarian it was 4.34 µM. Besides, the GI50 is 3.19 µM with SNB-19 CNS, 3.13 µM in the assay with KM12 colon, 1.27 µM with SK-MEL-5 melanoma and 0.416 µM in the assay with CAKI-1 renal. Moreover, the TGI with CCRF-CEM leukemia is 10.4 µM; in the assay with IGROV1 ovarian, 14.9 µM; in the assay on ACHN renal, 10.4 µM; in the assay on K-562 leukemia, 6.75 µM; with HCT-15 colon, 12.5 µM; in the assay with OVCAR-4 ovarian, more than 100 µM. For the same compound, the TGI in the assay with SNB-19 CNS was 16.9 µM; with KM12 colon, 13.6 µM; in the assay on SK-MEL-5 melanoma it was 2.56 µM; in the assay on CAKI-1 renal, 5.24 µM.
With `COC12c3ccccc3-c3ccccc3C1[C@@H](C(=O)O)[C@H]2C(=O)O` (stereo not given in full), the TGI in the assay on CCRF-CEM leukemia, in the assay on IGROV1 ovarian, in the assay on ACHN renal, in the assay on K-562 leukemia, with HCT-15 colon and in the assay with OVCAR-4 ovarian was more than 10 µM throughout. The TGI with SNB-19 CNS, with KM12 colon, in the assay with SK-MEL-5 melanoma and with CAKI-1 renal was more than 10 µM each time.
Consider `CC1(C)CCC(CN2CCN(c3ccc(C(=O)NS(=O)(=O)c4ccc(NCC5CCOCC5)c([N+](=O)[O-])c4)c(Oc4cnc5[nH]ccc5c4)c3)CC2)=C(c2ccc(Cl)cc2)C1`, for which the GI50 is 2.32 µM in the assay on CCRF-CEM leukemia; 2.98 µM in the assay on IGROV1 ovarian; 2.93 µM in the assay on ACHN renal; 3.5 µM with K-562 leukemia; 3.1 µM in the assay on HCT-15 colon; 3.53 µM in the assay with OVCAR-4 ovarian. For the same compound, the GI50 in the assay with SNB-19 CNS was 3.55 µM; in the assay on KM12 colon, 2.98 µM; in the assay with SK-MEL-5 melanoma, 1.67 µM; in the assay on CAKI-1 renal, 2.91 µM. Also, the TGI with CCRF-CEM leukemia is 7.29 µM; with IGROV1 ovarian, 9.57 µM; with ACHN renal, 10.2 µM; in the assay on K-562 leukemia it was 26.9 µM; with HCT-15 colon, 11.2 µM; in the assay with OVCAR-4 ovarian, 20.4 µM. The TGI with SNB-19 CNS came to 23.8 µM; in the assay on KM12 colon, 9.86 µM; with SK-MEL-5 melanoma, 3.09 µM; in the assay on CAKI-1 renal, 10.7 µM.
On to `Cc1ccc(NC(=O)CCC(=O)C2CC(=O)CCC2=O)cc1C` (stereo not given), for which the TGI in the assay on CCRF-CEM leukemia, in the assay on IGROV1 ovarian, with ACHN renal, in the assay on K-562 leukemia, in the assay with HCT-15 colon and in the assay on OVCAR-4 ovarian was more than 100 µM each time. The TGI with SNB-19 CNS, in the assay on KM12 colon, in the assay with SK-MEL-5 melanoma and in the assay with CAKI-1 renal was more than 100 µM throughout.
With `Cc1nc(N=C(N)N)nc2ccc3ccccc3c12`, the GI50 in the assay on CCRF-CEM leukemia is 1.76 µM; in the assay on IGROV1 ovarian, 1.53 µM; in the assay on ACHN renal, 1.79 µM; in the assay on K-562 leukemia, 1.43 µM; in the assay on HCT-15 colon, 2.99 µM; in the assay on OVCAR-4 ovarian, 1.44 µM. Further, the GI50 in the assay on SNB-19 CNS is 0.942 µM; in the assay with KM12 colon, 1.03 µM; in the assay with SK-MEL-5 melanoma, 1.51 µM; in the assay with CAKI-1 renal it was 2.5 µM. In addition, the TGI was determined as 6.01 µM with CCRF-CEM leukemia; 7.87 µM with IGROV1 ovarian; 5.15 µM in the assay with ACHN renal; 6.13 µM in the assay on K-562 leukemia; 14.1 µM with HCT-15 colon; 5.1 µM in the assay with OVCAR-4 ovarian. Also, the TGI in the assay on SNB-19 CNS turned out to be 4.89 µM; in the assay with KM12 colon it was 4.37 µM; with SK-MEL-5 melanoma, 3.32 µM; in the assay with CAKI-1 renal, 10.9 µM.
For the compound `Nc1ccc(C(=O)O)c2[nH]c3ccccc3c(=O)c12`, the TGI with CCRF-CEM leukemia, in the assay on IGROV1 ovarian, in the assay with ACHN renal, with K-562 leukemia, in the assay with HCT-15 colon and in the assay on OVCAR-4 ovarian was more than 100 µM each time. Also, the TGI in the assay with SNB-19 CNS, in the assay with KM12 colon, in the assay with SK-MEL-5 melanoma and in the assay on CAKI-1 renal was more than 100 µM each time.
Regarding `O=C(NCCS(=O)(=O)N1C(=O)C2CCCN2C(=O)[C@@H]1Cc1ccccc1)OCc1ccccc1` (stereo not given in full), the TGI in the assay with CCRF-CEM leukemia, with IGROV1 ovarian, in the assay on ACHN renal, in the assay on K-562 leukemia, in the assay with HCT-15 colon and in the assay with OVCAR-4 ovarian was more than 100 µM throughout. Moreover, the TGI in the assay with SNB-19 CNS, with KM12 colon, with SK-MEL-5 melanoma and in the assay with CAKI-1 renal was more than 100 µM in each case.
For the compound `COc1ccc(C(=O)Nc2ccccc2C#N)cc1`, the TGI in the assay with CCRF-CEM leukemia, in the assay with IGROV1 ovarian, in the assay on ACHN renal, in the assay on K-562 leukemia, with HCT-15 colon and in the assay with OVCAR-4 ovarian was more than 100 µM each time. In addition, the TGI in the assay with SNB-19 CNS, in the assay with KM12 colon, with SK-MEL-5 melanoma and with CAKI-1 renal was more than 100 µM each time.
`O=C1/C(=C\c2ccccc2)CN(C(=O)c2ccccc2F)C/C1=C\c1ccccc1`: the GI50 in the assay on CCRF-CEM leukemia is 1.52 µM; in the assay with IGROV1 ovarian, 2.08 µM; with ACHN renal, 1.85 µM; in the assay with K-562 leukemia it was 0.992 µM; in the assay with HCT-15 colon it was 1.88 µM; in the assay with OVCAR-4 ovarian it was 3.04 µM. Besides, the GI50 in the assay on SNB-19 CNS is 1.85 µM; with KM12 colon, 1.37 µM; in the assay with SK-MEL-5 melanoma it was 1.7 µM; in the assay with CAKI-1 renal it was 3.4 µM. Also, the TGI in the assay with CCRF-CEM leukemia is 5.62 µM; with IGROV1 ovarian, 4.46 µM; in the assay with ACHN renal, 3.46 µM; in the assay on K-562 leukemia, more than 20.7 µM; in the assay on HCT-15 colon, 4.11 µM; with OVCAR-4 ovarian, 11.2 µM. The TGI in the assay on SNB-19 CNS amounted to 4.15 µM; in the assay with KM12 colon, 3.11 µM; in the assay on SK-MEL-5 melanoma it was 3.23 µM; with CAKI-1 renal it was 12.8 µM.
